Read-outs that look alike come from different tables or passages of the source.
Assays:
[1] = target: T1, rat α1β2γ2L type GABAA receptors expressed in Xenopus laevis oocytes (Rattus norvegicus, UniProt P62813+P63138); assay: Oocyte electrophysiology: potentiation of GABA-mediated chloride currents and direct gating; format: cell-based; conditions: 2 μM GABA, ± SEM, N ≥4; for oocyte electrophysiology 0.1 μM: ratio of currents in presence/absence of 0.1 μM compound; for oocyte electrophysiology 1 μM: ratio of currents in presence/absence of 1 μM compound; for oocyte electrophysiology 10 μM: ratio of currents in presence/absence of 10 μM compound
T1 construct: expressed in transfected cells; host or cells: Xenopus laevis oocytes
Protocol: The compounds of the present disclosure were evaluated for the ability to potentiate chloride currents mediated by 2 μM GABA at rat α1β2γ2L type GABAA receptors expressed in Xenopus laevis oocytes and the results are shown in Table 2.

Tadpole = Tadpole loss of righting reflex (LRR) and loss of swimming reflex (LSR); format: in vivo; conditions: ± SEM
Protocol: Table 3 discloses the anesthetic effects of the compounds of the present disclosure. In particular, the anesthetic effect of the compounds of the present disclosure on Loss of Righting Reflex (LRR) and Loss of Swimming Reflex (LSR).
Methods used are known in the art (see Jiang, X., et al.). Error limits are calculated as standard error of the mean (N=10 or more animals at each of five or more different concentrations).

[2] = target: T1, rat α1β2γ2L type GABAA receptors expressed in Xenopus laevis oocytes; assay: Oocyte electrophysiology: potentiation of GABA-mediated chloride currents and direct gating; format: cell-based; conditions: direct current gated by 10 μM compound in absence of GABA; ratio of compound only current/2 μM GABA current
[3] = target: picrotoxin binding site on GABAA receptors; assay: [35S]-TBPS displacement (inhibition of [35S]-TBPS binding); conditions: non-competitive displacement; duplicate experiments in triplicate; ± SEM
Excerpt: The IC50 values for non-competitive displacers of [^35S]-TBPS from the picrotoxin binding site on GABAA receptors are reported in Table 1.

[4] = loss of righting reflex, read-out: Tadpole LRR EC50
[5] = loss of swimming reflex, read-out: Tadpole LSR EC50

T1 sequence (P62813 28-455): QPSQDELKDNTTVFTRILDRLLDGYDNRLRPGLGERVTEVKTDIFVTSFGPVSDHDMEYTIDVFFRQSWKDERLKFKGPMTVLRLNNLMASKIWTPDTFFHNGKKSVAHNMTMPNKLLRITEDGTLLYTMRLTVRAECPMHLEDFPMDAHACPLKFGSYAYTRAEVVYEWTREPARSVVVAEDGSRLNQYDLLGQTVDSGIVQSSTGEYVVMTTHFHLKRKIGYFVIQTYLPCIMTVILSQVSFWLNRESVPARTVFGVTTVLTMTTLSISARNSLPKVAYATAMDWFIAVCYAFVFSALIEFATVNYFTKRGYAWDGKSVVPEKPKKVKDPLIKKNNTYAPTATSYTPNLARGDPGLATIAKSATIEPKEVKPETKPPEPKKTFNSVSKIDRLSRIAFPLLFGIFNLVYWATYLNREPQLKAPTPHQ
T1 sequence (P63138 26-474): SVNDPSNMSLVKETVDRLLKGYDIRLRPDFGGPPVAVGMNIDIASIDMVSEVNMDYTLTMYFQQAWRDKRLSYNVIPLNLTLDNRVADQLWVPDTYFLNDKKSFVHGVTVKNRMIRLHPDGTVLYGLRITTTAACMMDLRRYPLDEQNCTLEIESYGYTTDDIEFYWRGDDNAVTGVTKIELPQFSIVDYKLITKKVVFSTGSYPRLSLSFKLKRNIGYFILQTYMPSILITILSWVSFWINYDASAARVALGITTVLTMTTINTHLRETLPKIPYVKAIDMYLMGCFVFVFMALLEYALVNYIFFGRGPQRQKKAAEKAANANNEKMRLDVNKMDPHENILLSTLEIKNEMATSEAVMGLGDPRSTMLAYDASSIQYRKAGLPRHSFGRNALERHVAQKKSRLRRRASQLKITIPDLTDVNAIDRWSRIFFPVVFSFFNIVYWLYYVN
T1 sequence (P18508 with tags, fused parts or gaps INS375LLRMFSFK partner): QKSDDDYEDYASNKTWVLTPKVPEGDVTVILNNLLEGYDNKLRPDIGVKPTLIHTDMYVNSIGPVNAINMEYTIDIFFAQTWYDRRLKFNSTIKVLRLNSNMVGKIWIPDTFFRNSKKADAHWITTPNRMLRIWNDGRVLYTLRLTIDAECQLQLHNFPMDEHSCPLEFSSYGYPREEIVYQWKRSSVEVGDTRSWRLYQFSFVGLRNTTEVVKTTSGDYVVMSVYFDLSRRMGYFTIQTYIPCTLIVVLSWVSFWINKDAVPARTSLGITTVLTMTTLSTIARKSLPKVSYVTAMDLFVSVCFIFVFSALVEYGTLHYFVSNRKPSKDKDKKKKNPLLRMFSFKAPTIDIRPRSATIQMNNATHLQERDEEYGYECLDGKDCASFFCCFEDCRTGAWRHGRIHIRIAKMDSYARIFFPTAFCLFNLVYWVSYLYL

SMILES | oocyte electrophysiology 0.1 μM [1] | oocyte electrophysiology 1 μM [1] | oocyte electrophysiology 10 μM [1] | EC50 (Tadpole; [4]) [µM] | EC50 (Tadpole; [5]) [µM] | oocyte electrophysiology (gating) 10 μM [2] | IC50 [3] [µM] | melting point [°C]
COC[C@]12CC[C@@H](O)C[C@@H]1CC[C@H]1[C@@H]3CC[C@H](C(C)=O)[C@@]3(C)CC[C@@H]12 [Compound 17, (3α,5α)-3-Hydroxy-19-methoxypregnan-20-one] | 2.15 ± 0.19 | 12.8 ± 1.74 | 33.8 ± 5.44 | 0.36 ± 0.04 | 1.71 ± 0.03 | 0.23 ± 0.07 | – | –
COC[C@]12CCC(O)CC1CC[C@@H]1[C@@H]2CC[C@]2(C)C(=O)CC[C@@H]12 (stereo in doubt) [Compound 30, (3α,5β)-3-Hydroxy-19-methoxyandrostan-17-one] | 0.90 ± 0.02 | 0.88 ± 0.01 | 0.84 ± 0.02 | > 10 | – | – | – | –
COC[C@]12CC[C@@H](O)C[C@@H]1CC[C@H]1[C@@H]3CC[C@H](C#N)[C@@]3(C)CC[C@@H]12 [Compound 16, (3α,5α,17β)-3-Hydroxy-19-methoxyandrostane-17-carbonitrile] | 1.52 ± 0.02 | 9.79 ± 0.53 | 25.7 ± 2.11 | 0.36 ± 0.04 | 0.99 ± 0.17 | 0.25 ± 0.11 | – | –
COC[C@]12CC[C@@H](O)CC1=CC[C@@H]1[C@@H]2CC[C@]2(C)[C@@H](OC)CC[C@@H]12 [Compound 25, (3α,17β)-17, 19-Dimethoxyandrost-5-en-3-ol] | 0.94 ± 0.07 | 1.97 ± 0.08 | 15.7 ± 0.90 | 3.38 ± 0.38 | 10.5 | 0.08 ± 0.07 | – | –
COC[C@]12CC[C@@H](O)C[C@@H]1CC[C@@H]1[C@@H]2CC[C@@]2(C)[C@H]1CC[C@@]21CO1 [Compound 12, (3α,5α,17β)-19-Methoxyspiro[androstane-17,2′-oxiran]-3-ol] | 1.24 ± 0.05 | 7.40 ± 1.43 | 18.7 ± 6.19 | 1.73 ± 0.05 | 3.54 ± 2.33 | 0.14 ± 0.04 | – | –
COC[C@]12CC[C@H](O)CC1=CC[C@@H]1[C@@H]2CC[C@]2(C)[C@@H](OC)CC[C@@H]12 [Compound 26, (3β,17β)-17, 19-Dimethoxyandrost-5-en-3-ol] | 0.83 ± 0.03 | 0.76 ± 0.02 | 0.78 ± 0.02 | – | – | 0.02 ± 0.02 | – | –
COC[C@]12CCC(=O)C=C1CC[C@@H]1[C@@H]2CC[C@]2(C)[C@@H](OC)CC[C@@H]12 [Compound 24, (17β)-17,19-Dimethoxyandrost-4-en-3-one] | 0.88 ± 0.08 | 0.63 ± 0.06 | 1.06 ± 0.17 | – | – | 0.11 ± 0.17 | – | –
COC[C@]12CC[C@@H](O)C[C@@H]1CC[C@@H]1[C@@H]2CC[C@]2(C)C(C#N)=CC[C@@H]12 [Compound 15, (3α,5α)-3-Hydroxy-19-methoxyandrost-16-ene-17-carbonitrile] | 1.27 ± 0.13 | 5.34 ± 0.86 | 25.6 ± 3.23 | 1.22 ± 0.94 | 2.71 | 0.10 ± 0.09 | – | –
COC[C@]12CC[C@H](O)C[C@@H]1CC[C@H]1[C@@H]3CC[C@H](OC)[C@@]3(C)CC[C@@H]12 [Compound 31, (3β,5α,17β)-17, 19-Dimethoxyandrostan-3-ol] | 0.91 ± 0.02 | 0.97 ± 0.05 | 1.10 ± 0.05 | 7.04 ± 1.98 | 16.8 ± 5.9 | 0.02 ± 0 | – | –
COC[C@]12CC[C@@H](O)C[C@@H]1CC[C@@H]1[C@@H]2CC[C@]2(C)C(=O)CC[C@@H]12 [Compound 11, (3α,5α)-3-Hydroxy-19-methoxyandrostan-17-one] | 0.71 ± 0.02 | 0.76 ± 0.07 | 2.17 ± 0.12 | 7.95 ± 3.29 | 17.3 ± 0.2 | 0 ± 0.07 | 4.3 | –
COC[C@]12CC[C@@H](O)C[C@@H]1CC[C@H]1[C@@H]3CC[C@H](OC)[C@@]3(C)CC[C@@H]12 [Compound 8, (5α,17β)-17,19-Dimethoxyandrostan-3-ol] | 1.65 ± 0.08 | 7.63 ± 0.77 | 20.9 ± 2.73 | 332 ± 43 | 1.07 ± 0.01 | 0.22 ± 0.01 | – | –
COC[C@]12CCC(=O)C[C@@H]1CC[C@H]1[C@@H]3CC[C@H](OC)[C@@]3(C)CC[C@@H]12 [Compound 7, (5α,17β)-17,19-Dimethoxyandrostan-3-one] | 1.00 ± 0 | 0.85 ± 0.01 | 1.07 ± 0.02 | 1.71 ± 0.25 | 5.48 ± 0.12 | 0.04 ± 0.03 | – | 91 to 93
COC[C@]12CC[C@@H](O)C[C@@H]1CC[C@H]1[C@@H]3CC[C@H]([N+](=O)[O-])[C@@]3(C)CC[C@@H]12 [Compound 29, (3α,5α,17β)-19-methoxy-17-nitroandrostan-3-ol] | 2.07 ± 0.09 | 15.7 ± 1.45 | 26.6 ± 4.34 | 0.16 ± 0.01 | 0.55 ± 0.01 | 0.11 ± 0.01 | – | –
COC[C@]12CC[C@@H](O)C[C@@H]1CC[C@H]1[C@@H]3CC[C@H](C(=O)CO)[C@@]3(C)CC[C@@H]12 [Compound 20, (3α,5α)-3,21-Dihydroxy-19-methoxypregnan-20-one] | 0.98 ± 0.01 | 2.76 ± 0.27 | 19.0 ± 2.31 | 3.15 ± 0.5 | 5.48 ± 0.12 | 0.09 ± 0.05 | – | –

From patent US10342809B2, “Neuroactive 19-alkoxy-17-substituted steroids, prodrugs thereof, and methods of treatment using same” (priority 2012, dated 2019)
